According to BindingDB's records for doi:10.1016/j.bmcl.2011.03.003 (Sanofi-Aventis, 2011):

Biological target: Insulin-like growth factor 1 receptor (Homo sapiens, UniProt P08069)
Assay: Inhibition of IGF-induced autophosphosphorylation of GST-tagged human IGF1R expressed in SF21 cells by time resolved-fluorescent assay

Chain of Insulin-like growth factor 1 receptor (P08069 31-736 limits assumed): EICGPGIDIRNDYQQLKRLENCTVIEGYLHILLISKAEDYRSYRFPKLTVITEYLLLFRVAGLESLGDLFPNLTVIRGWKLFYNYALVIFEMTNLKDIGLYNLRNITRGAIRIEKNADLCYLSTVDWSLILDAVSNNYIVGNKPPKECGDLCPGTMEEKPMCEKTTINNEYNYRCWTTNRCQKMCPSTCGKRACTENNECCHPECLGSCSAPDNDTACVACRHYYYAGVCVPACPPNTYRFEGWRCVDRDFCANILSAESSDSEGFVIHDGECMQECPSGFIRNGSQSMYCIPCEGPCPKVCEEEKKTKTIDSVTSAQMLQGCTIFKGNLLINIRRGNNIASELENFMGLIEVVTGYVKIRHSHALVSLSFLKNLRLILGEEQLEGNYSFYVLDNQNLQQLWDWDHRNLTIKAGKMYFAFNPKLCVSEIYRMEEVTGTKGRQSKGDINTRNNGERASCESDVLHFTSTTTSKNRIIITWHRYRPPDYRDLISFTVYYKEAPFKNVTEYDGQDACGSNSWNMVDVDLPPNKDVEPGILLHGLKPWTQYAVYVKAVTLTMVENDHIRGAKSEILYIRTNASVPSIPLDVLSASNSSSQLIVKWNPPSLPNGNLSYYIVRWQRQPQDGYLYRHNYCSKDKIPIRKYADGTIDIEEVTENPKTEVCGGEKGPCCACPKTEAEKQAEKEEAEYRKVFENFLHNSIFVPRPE
Chain of Insulin-like growth factor 1 receptor (P08069 741-1367 limits assumed): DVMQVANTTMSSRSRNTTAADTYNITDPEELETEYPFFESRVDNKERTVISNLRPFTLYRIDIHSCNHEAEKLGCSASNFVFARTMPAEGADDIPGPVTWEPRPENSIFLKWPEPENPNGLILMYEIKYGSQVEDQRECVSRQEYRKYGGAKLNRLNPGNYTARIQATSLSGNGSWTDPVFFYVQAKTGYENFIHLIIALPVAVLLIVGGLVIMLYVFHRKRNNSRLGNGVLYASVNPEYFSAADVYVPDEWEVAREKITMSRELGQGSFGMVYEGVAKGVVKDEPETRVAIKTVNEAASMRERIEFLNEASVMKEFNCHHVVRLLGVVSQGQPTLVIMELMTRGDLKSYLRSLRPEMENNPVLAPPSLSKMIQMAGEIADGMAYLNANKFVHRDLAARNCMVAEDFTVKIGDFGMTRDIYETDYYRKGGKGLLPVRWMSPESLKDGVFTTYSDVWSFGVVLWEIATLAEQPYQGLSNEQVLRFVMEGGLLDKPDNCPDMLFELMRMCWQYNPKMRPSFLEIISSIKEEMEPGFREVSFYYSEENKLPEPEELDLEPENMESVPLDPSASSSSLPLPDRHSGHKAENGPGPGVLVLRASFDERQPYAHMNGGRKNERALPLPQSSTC

IC50, > 100 µM:
Cc1c(O)n(-c2ccc(S(=O)(=O)C(F)(F)F)cc2)c(=O)n1Cc1cnc[nH]1 [(S)-1-((1H-imidazol-4-yl)methyl)-5-methyl-3-(4-(trifluoromethylsulfonyl)phenyl)imidazolidine-2,4-dione], Cc1c(O)n(-c2ccc(S(=O)(=O)C(F)(F)F)cc2)c(=O)n1Cc1cncc2ccccc12 [(S)-1-(isoquinolin-4-ylmethyl)-5-methyl-3-(4-(trifluoromethylsulfonyl)phenyl)imidazolidine-2,4-dione], Cc1c(O)n(-c2ccc(S(=O)(=O)C(F)(F)F)cc2)c(=O)n1Cc1ccccc1 [(S)-1-benzyl-5-methyl-3-(4-(trifluoromethylsulfonyl)phenyl)imidazolidine-2,4-dione], Cc1c(O)n(-c2ccc(S(=O)(=O)C(F)(F)F)cc2)c(=O)n1Cc1cc[n+]([O-])cc1 [(S)-4-((5-methyl-2,4-dioxo-3-(4-(trifluoromethylsulfonyl)phenyl)imidazolidin-1-yl)methyl)pyridine 1-oxide], Cc1c(O)n(-c2ccc(S(=O)(=O)C(F)(F)F)cc2)c(=O)n1Cc1cc[n+]([O-])c2ccccc12 [(S)-4-((5-methyl-2,4-dioxo-3-(4-(trifluoromethylsulfonyl)phenyl)imidazolidin-1-yl)methyl)quinoline 1-oxide], Cc1c(O)n(-c2ccc(S(=O)(=O)C(F)(F)F)cc2)c(=O)n1CC1CCNCC1 [(S)-5-methyl-1-(piperidin-4-ylmethyl)-3-(4-(trifluoromethylsulfonyl)phenyl)imidazolidine-2,4-dione], Cc1c(O)n(-c2ccc(S(=O)(=O)C(F)(F)F)cc2)c(=O)n1Cc1ccccn1 [(S)-5-methyl-1-(pyridin-2-ylmethyl)-3-(4-(trifluoromethylsulfonyl)phenyl)imidazolidine-2,4-dione], Cc1c(O)n(-c2ccc(S(C)(=O)=O)cc2)c(=O)n1Cc1ccnc2ccccc12 [(S)-5-methyl-3-(4-(methylsulfonyl)phenyl)-1-(quinolin-4-ylmethyl)imidazolidine-2,4-dione]
